In patent US6472141B2, “Kinase assays using polycations” (Caliper Technologies Corp., priority 1999, dated 2002):
{Fl-O} = fluorescein attached through an O linker; {Fluorescein} = fluorescein label

How the values were obtained:
Assay type in all cases: binding
[1] = test system: DNA target 192; experiment: PNA/DNA hybridization detected by fluorescence polarization, complementary target
Description: (§1) A fluorescein-labeled peptide nucleic acid molecule 202 was used in hybridization experiments with the DNA targets 192 and 182. PNAs are generally commercially available from the Applied Biosystems Division of the Perkin-Elmer Corporation (Foster City, Calif.). The sequence of these molecules is illustrated below. In the case of the PNA molecule, the given sequence illustrates the analogous sequence of a DNA molecule. The sequences of the three molecules are as follows:
(§2) DNA sequence 192 contains 13 bases (shown in bold) that are fully complementary to the PNA probe 202, whereas 182 is a non-complementary oligonucleotide.
(§3) A solution containing 1 μM of PNA 202 in 50 mM HEPES pH 7.5 was mixed with either 5 μM of 192 or 5 μM of 182. The mixtures were left at room temperature for about 10 min. and then placed in the cuvette of a fluorimeter equipped to measure fluorescence polarization. The measurements were carried out using 490 nm for excitation and 520 nm for detection of fluorescence emission. The fluorescence polarization values were recorded first in the absence and then in the presence of poly-L-Lysine hydrobromide, having a molecular weight of approximately 70-100 kD (Sigma Chemicals). The poly-L-Lysine was added from a stock solution in water (approx. 440 μM). The final concentrations of the poly Lysine were 4.4 and 8.8 μM.

[2] = test system: DNA target 182; experiment: PNA/DNA hybridization detected by fluorescence polarization, non-complementary target
Description: as §1, §2, §3

[3] = test system: DNA 244; experiment: Single nucleotide substitution detection by fluorescence polarization of PNA probe; settings: 250 nM probe, about 3 μM poly-L-Lysine, 50 mM HEPES pH 7.5, 100 mM NaCl
Description: The assay methods were employed to detect differential hybridization of a nucleic acid probe to a perfectly complementary target sequence and a target sequence incorporating a single base variation, e.g., a single nucleotide polymorphism (SNP). In particular, a fluoresceinated PNA probe having a sequence complementary to a subsequence of a target sequence was used to probe the target including the subsequence and a target in which an interior base of the subsequence was substituted for a different base.
The 5′ to 3′ sequences of the PNA probe (PNA 7637)(SEQ ID NO:4), the target DNA sequence (DNA 244) (SEQ. ID NO.5) and single base mismatch target DNA sequence (DNA 245) (SEQ. ID NO.6) were as follows:
The PNA probe 7637 was used at a final concentration of 250 nM, in a reaction volume of 400 μl. The buffer used was 50 mM HEPES pH 7.5, 100 mM NaCl. The solution also contained poly-L-Lysine at about 3 μM. One μl aliquots of the DNA targets 244 and 245 were added iteratively to the PNA solution and the fluorescence polarization (excitation 490, emission 520 nm) was recorded after the addition of each aliquot. The data from this experiment is illustrated in FIG. 22. […] As can also be seen, hybridization plateaued at approximately a […] of target sequence in the perfectly complementary example.

“5′Fl-O-GTCAAATACTCCA (all peptide nucleic acid (PNA), 5' {Fl-O}) [compound 202, ID NO.1]” was tested, and the polarization value ([1]; 202 hybrid with complementary 192, in the absence of poly-L-Lysine) was “about 100 mP”, the polarization value ([1]; 202 hybrid with complementary 192, in the presence of poly-L-Lysine) was 229 mP and the polarization value ([2]; 1 μM 202 with 5 μM non-complementary 182, without poly-L-Lysine) was 86 mP. The polarization value ([2]; 202 with non-complementary 182, in the presence of poly-L-Lysine) was 140 mnP.

With “Fluorescein-CCTGTAGCA (all peptide nucleic acid (PNA), 5' {Fluorescein}) [PNA probe 7637]” the “fluorescence polarization, perfectly complementary target vs single base mismatch target (DNA 245)” value [3] was “substantially higher levels of fluorescence polarization”.
